Measured values as given in patent US11618747B2, “LXR modulators with bicyclic core moiety” (OrsoBio, Inc., priority 2018, dated 2023).

Legend:
[1] = biological target: T1, LXRβ ligand-binding domain (Homo sapiens, UniProt P55055, DUP175-175); test: TR-FRETβ activity assay (NCoA3 coactivator peptide recruitment); type: biochemical; conditions: TR-FRET, 1 μM 24(S)-25-epoxycholesterol prestimulation; read-out: FRETβ (EC50 range)
T1 construct: amino acids 156-461; NP009052; made in house; host or cells: E. coli
T1 sequence (P55055 with tags, fused parts or gaps DUP175-175 limits assumed): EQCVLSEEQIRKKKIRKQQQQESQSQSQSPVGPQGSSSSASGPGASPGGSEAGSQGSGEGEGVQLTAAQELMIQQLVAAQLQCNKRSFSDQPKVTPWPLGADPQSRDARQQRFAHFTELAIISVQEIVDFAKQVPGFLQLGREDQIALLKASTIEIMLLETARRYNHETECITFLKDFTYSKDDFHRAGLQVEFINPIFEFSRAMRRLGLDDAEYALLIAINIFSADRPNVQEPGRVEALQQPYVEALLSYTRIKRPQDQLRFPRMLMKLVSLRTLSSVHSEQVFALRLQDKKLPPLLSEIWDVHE
In short: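 GST-tagged human LXRβ LBD (aa 156-461, E. coli) at 76 nM with 400 nM biotinylated NCoA3 peptide in Tris/HCl pH 6.8, 240 mM KCl, BSA, 0.002% Triton-X-100, plus 1 μM 24(S)-25-epoxycholesterol as prestimulating agonist. Compounds at 50 μM down to 0.002 μM, 1 h at 4 °C. Coactivator recruitment by TR-FRET (Tb cryptate/XL665, 615/665 nm), triplicates.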

[2] = biological target: T2, ligand-binding domain (LBD) of LXRβ (Homo sapiens, UniProt P55055, DUP175-175); test: LXR Gal4 reporter transient transfection assay (LBD-M2H Gal4β); type: cell-based; conditions: HEK293 cells, LXRβ LBD; read-out: LBD-M2H Gal4β (EC50 range)
T2 construct: LXRβ (amino acids 156-461); expressed in transfected cells; host or cells: HEK293
T2 sequence (P55055 with tags, fused parts or gaps DUP175-175 limits assumed): T1 sequence (P55055 with tags, fused parts or gaps DUP175-175 limits assumed)
Protocol: (§1) The tested compounds were usually dissolved, tested and stored as 20 mM stock solutions in DMSO. Since sulfonyl acetic acid derivatives tend to decarboxylate under these conditions, these stock solutions were prepared, tested and stored as 20 mM DMSO stock solutions containing 100 mM trifluoroacetic Acid (5 equivalents). Sulfonyl acetic acid derivatives are shelf stable as solid at rt for long time as reported by Griesbrecht et al. (Synlett 2010:374) or Faucher et al. (J. Med. Chem. 2004; 47:18).
(§2) LXR Gal4 Reporter Transient Transfection Assays
(§3) LXRα and LXRβ activity status was determined via detection of interaction with coactivator and corepressor proteins in mammalian two-hybrid experiments (M2H). For this, via transient transfection the full length (FL) proteins of LXRα (amino acids 1-447; NP005684; SEQ ID NO:1) or LXRβ-(amino acids 1-461; NP009052; SEQ ID NO:2) or the ligand-binding domains (LBD) of LXRα (amino acids 155-447 SEQ ID NO:3) or LXRβ (amino acids 156-461; SEQ ID NO:4) were expressed from pCMV-AD (Stratagene) as fusions to the transcriptional activation domain of NFkB. As cofactors, domains of either the steroid receptor coactivator 1 (SRC1; amino acids 552-887; SEQ ID NO:5) or of the corepressor NCoR (amino acids 1906-2312; NP006302; SEQ ID NO:6) were expressed as fusions to the DNA binding domain of the yeast transcription factor GAL4 (from pCMV-BD; Stratagene). Interaction was monitored via activation of a coexpressed Firefly Luciferase Reporter gene under control of a promoter containing repetitive GAL4 response elements (vector pFRLuc; Stratagene). Transfection efficiency was controlled via cotransfection of constitutively active pRL-CMV Renila reniformis luciferase reporter (Promega). HEK293 cells were grown in minimum essential medium (MEM) with 2 mM L-glutamine and Earle's balanced salt solution supplemented with 8.3% fetal bovine serum, 0.1 mM non-essential amino acids, 1 mM sodium pyruvate, at 37° C. in 5% CO2. 3.5×10^4 cells/well were plated in 96-well cell culture plates in growth medium supplemented with 8.3% fetal bovine serum for 16-20 h to ˜90% confluency. For transfection, medium was taken off and LXR and cofactor expressing plasmids as well as the reporter plasmids are added in 30 μL OPTIMEM/well including polyethylene-imine (PEI) as vehicle. Typical amounts of plasmids transfected/well: pCMV-AD-LXR (5 ng), pCMV-BD-cofactor (5 ng), pFR-Luc (100 ng), pRL-CMV (0.5 ng). Compound stocks were prepared in DMSO, prediluted in MEM to a total volume of 120 μL, and added 4 h after addition of the transfection mixture (final vehicle concentration not exceeding 0.2%). Cells were incubated for additional 16 h, lysed for 10 min in 1× Passive Lysis Buffer (Promega) and Firefly and Renilla luciferase activities were measured sequentially in the same cell extract using buffers containing D-luciferine and coelenterazine, respectively. Measurements of luminescence were done in a BMG-luminometer.

[3] = biological target: T3, ligand-binding domain (LBD) of LXRα (Homo sapiens, UniProt Q13133); test: LXR Gal4 reporter transient transfection assay (LBD-M2H Gal4α); type: cell-based; conditions: HEK293 cells, LXRα LBD; read-out: LBD-M2H Gal4α (EC50 range)
T3 construct: expressed in transfected cells; host or cells: HEK293
T3 sequence (Q13133 155-447): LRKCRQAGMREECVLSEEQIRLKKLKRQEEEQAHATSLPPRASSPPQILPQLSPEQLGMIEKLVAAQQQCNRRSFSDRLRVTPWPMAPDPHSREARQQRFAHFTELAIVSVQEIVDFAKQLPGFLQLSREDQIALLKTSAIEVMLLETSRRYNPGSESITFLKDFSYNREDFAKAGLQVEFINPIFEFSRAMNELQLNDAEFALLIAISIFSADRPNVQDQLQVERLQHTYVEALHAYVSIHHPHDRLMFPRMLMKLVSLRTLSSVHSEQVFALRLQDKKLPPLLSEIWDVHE
Protocol: as §1, §2, §3

Row | SMILES | EC50 [1] | EC50 [2] | EC50 [3]
1 | Cc1ccc(S(=O)(=O)n2c(-c3ccsc3)c(-c3ccsc3C#N)c3ccccc32)cc1 [1/23] | 100 to 1000 nM | < 100 nM | < 100 nM
2 | Cc1cc(C)c(S(=O)(=O)n2c(-c3cccs3)c(-c3ccsc3C#N)c3ccccc32)c(C)c1 [1/26] | 1000 to 10000 nM | < 100 nM | 100 to 1000 nM
3 | N#Cc1sccc1-c1c(-c2cccs2)n(S(=O)(=O)c2cccc3ccccc23)c2ccccc12 [1/27] | 1000 to 10000 nM | < 100 nM | 100 to 1000 nM
4 | Cn1cnc(S(=O)(=O)n2c(-c3cccs3)c(-c3ccsc3C#N)c3ccccc32)c1 [1/28] | 1000 to 10000 nM | < 100 nM | 100 to 1000 nM
5 | COc1ccc2c(c1)c(-c1ccsc1C#N)c(-c1cccs1)n2S(=O)(=O)c1ccc(Cl)cc1 [1/39] | > 10000 nM | – | 1000 to 10000 nM
6 | COc1ccc2c(-c3ccsc3C#N)c(-c3cccs3)n(S(=O)(=O)c3ccc(Cl)cc3)c2c1 [1/40] | 1000 to 10000 nM | < 100 nM | 100 to 1000 nM
7 | N#Cc1sccc1-c1c(-c2ccccc2)n(S(=O)(=O)c2cccnc2)c2ccccc12 [1/41] | 1000 to 10000 nM | < 100 nM | 100 to 1000 nM
8 | Cc1ncc(S(=O)(=O)n2c(-c3ccccc3)c(-c3ccsc3C#N)c3ccccc32)s1 [1/42] | 1000 to 10000 nM | < 100 nM | < 100 nM
9 | N#Cc1sccc1-c1c(-c2cccc(N3CC(C(=O)O)C3)c2)n(S(=O)(=O)c2ccccc2)c2ccc(F)cc12 [3/9] | 1000 to 10000 nM | < 100 nM | 100 to 1000 nM
10 | Cc1ccc(S(=O)(=O)n2c(-c3ccc(CC(C)(C)C(=O)O)s3)c(-c3ccsc3C#N)c3ccccc32)cc1 [3/16] | 1000 to 10000 nM | 100 to 1000 nM | 100 to 1000 nM
11 | Cc1ccc(S(=O)(=O)n2c(-c3cc(C4CC4C(=O)O)cs3)c(-c3ccsc3C#N)c3ccccc32)cc1 (stereo not shown) [3/17] | 1000 to 10000 nM | < 100 nM | 100 to 1000 nM
12 | Cc1ccc(S(=O)(=O)n2c(-c3cccc(/C=C/C(=O)O)c3)c(-c3ccsc3C#N)c3ccccc32)cc1 [3/18] | 1000 to 10000 nM | < 100 nM | 100 to 1000 nM
13 | Cc1ccc(S(=O)(=O)n2c(-c3ccc(/C=C/C(=O)O)s3)c(-c3ccsc3C#N)c3ccccc32)cc1 [3/19] | 1000 to 10000 nM | 100 to 1000 nM | 100 to 1000 nM
14 | COc1ccc(S(=O)(=O)n2c(-c3ccc(CCC(=O)O)cc3)c(-c3ccsc3C#N)c3ccccc32)cc1 [15/6] | 1000 to 10000 nM | 100 to 1000 nM | –
15 | COc1ccc(S(=O)(=O)n2c(-c3cccs3)c(-c3ccsc3C#N)c3ccccc32)cc1 [20/14] | 100 to 1000 nM | < 100 nM | –
16 | COC(=O)CCc1ccc(S(=O)(=O)n2c(-c3cccs3)c(-c3ccsc3C#N)c3ccccc32)cc1 [20/15] | 100 to 1000 nM | 100 to 1000 nM | –
17 | COc1ccc(S(=O)(=O)n2c(-c3ccccc3)c(-c3c(C#N)sc4ccccc34)c3ccccc32)cc1 [20/18] | – | < 100 nM | 100 to 1000 nM
18 | N#Cc1sccc1-c1c(-c2cccs2)n(S(=O)(=O)c2ccc(CCC(=O)O)cc2)c2ccccc12 [23/1] | 1000 to 10000 nM | < 100 nM | –
19 | Cc1ccc(S(=O)(=O)n2c(-c3cccc(-c4cncc(C(C)(C)C(=O)O)c4)c3)c(-c3ccsc3C#N)c3ccccc32)cc1 [30/3] | – | 100 to 1000 nM | 100 to 1000 nM
20 | N#Cc1sccc1-c1c(-c2cccs2)n(S(=O)(=O)c2ccc(Cl)cc2)c2ccc(O)cc12 [Example 13, 3-(1-((4-Chlorophenyl)sulfonyl)-5-hydroxy-2-(thiophen-2-yl)-1t-indol-3-yl)thiophene-2-carbonitrile] | 100 to 1000 nM | < 100 nM | –
21 | N#Cc1sccc1-c1c(-c2cccs2)n(S(=O)(=O)c2ccc(Cl)cc2)c2ccc(OCC(=O)O)cc12 [Example 15, 2-((1-((4-Chlorophenyl)sulfonyl)-3-(2-cyanothiophen-3-yl)-2-(thiophen-2-yl)-1H-indol-5-yl)oxy)acetic Acid] | > 10000 nM | > 10000 nM | –
22 | N#Cc1sccc1-c1c(-c2cccs2)n(S(=O)(=O)c2ccc(Cl)cc2)c2cc(CCC(=O)O)c(O)cc12 [Example 17, 3-(1-((4-Chlorophenyl)sulfonyl)-3-(2-cyanothiophen-3-yl)-5-hydroxy-2-(thiophen-2-yl)-1H-indol-6-yl)propanoic Acid] | > 10000 nM | 1000 to 10000 nM | –
23 | O=S(=O)(c1ccc(Cl)cc1)n1c(-c2cccs2)c(-c2ccsc2Cl)c2ccccc21 [Example 20, 1-((4-Chlorophenyl)sulfonyl)-3-(2-chlorothiophen-3-yl)-2-(thiophen-2-yl)-1H-indole] | 100 to 1000 nM | < 100 nM | –
24 | O=C(O)c1sccc1-c1c(-c2cccs2)n(S(=O)(=O)c2ccc(Cl)cc2)c2ccccc12 [Example 21, 3-(1-((4-Chlorophenyl)sulfonyl)-2-(thiophen-2-yl)-1H-indol-3-yl)thiophene-2-carboxylic Acid] | > 10000 nM | 1000 to 10000 nM | –
25 | N#Cc1sccc1-c1c(-c2cccs2)n(S(=O)(=O)c2ccc(Cl)cc2)c2ccc(C(=O)O)cc12 [Example 23, 1-((4-Chlorophenyl)sulfonyl)-3-(2-cyanothiophen-3-yl)-2-(thiophen-2-yl)-1H-indole-5-carboxylic Acid] | > 10000 nM | 100 to 1000 nM | –
26 | N#Cc1sccc1-c1c(-c2cncs2)n(S(=O)(=O)c2ccc(Cl)cc2)c2ccccc12 [Example 25] | 1000 to 10000 nM | < 100 nM | –
27 | N#Cc1sccc1-c1c(-c2ccccc2)n(S(=O)(=O)c2ccc(OCC(=O)O)cc2)c2ccccc12 [Example 27, 2-(4-((3-(2-Cyanothiophen-3-yl)-2-phenyl-1-H-indol-1-yl)sulfonyl)phenoxy)acetic Acid] | 1000 to 10000 nM | 100 to 1000 nM | –
28 | COc1ccc(S(=O)(=O)n2c(-c3ccc(CCC(N)=O)cc3)c(-c3ccsc3C#N)c3ccccc32)cc1 [Example 28, 3-(4-(3-(2-Cyanothiophen-3-yl)-1-((4-methoxyphenyl)sulfonyl)-1H-indol-2-yl)phenyl)propan-amide] | 1000 to 10000 nM | 100 to 1000 nM | –
29 | Cc1ccc(S(=O)(=O)n2c(-c3cccc(-c4cccc(C(=O)NS(C)(=O)=O)c4)c3)c(-c3ccsc3C#N)c3ccccc32)cc1 [Example 32, 3′-(3-(2-Cyanothiophen-3-yl)-1-tosyl-1H-indol-2-yl)-N-(methylsulfonyl)-[1,1′-biphenyl]-3-carboxamide] | 100 to 1000 nM | 100 to 1000 nM | –
